Results from paper PMC10515483, “Structure–Reactivity Studies of 2-Sulfonylpyrimidines Allow Selective Protein Arylation” (Bioconjugate Chemistry, 2023).

Test: GSH arylation rate constants (NMR; UV-vis for fast warheads)
Format: physicochemical
Set-up: key to rate constant (k) for the reaction with GSH / k: NR = no reaction
Conditions: for k: Table S8, rate constants obtained at pH = 7; for reactivity with GSH (in words): up to 6 h; for k change (vs ref): ratio to rate constant of 4q, acceleration (+) or deceleration (-)
Source text: We employed nuclear magnetic resonance (NMR) and UV–vis to quantify the reactivity of our 2-SP derivatives and other representative electrophiles (Figure 2) against cysteine. NMR allowed straightforward determination of reaction rate constants through dual monitoring of the consumption of the warhead and formation of the product by integration of their respective NMR signals (Figures S1–S3). It simultaneously provided a direct readout on reaction specificity and hydrolytic stability of the warhead. All measurements were carried out in KPi buffer in the presence of 5% d^6-dmso, which is generally well-tolerated by a wide range of proteins in in vitro studies. N-acetylcysteine methylester (NACME) and L-glutathione (GSH) are useful model cysteine nucleophiles for in vitro studies of electrophilic agents.[32] Mixing reference electrophile 2-methylsulfonylpyrimidine (4q) with NACME or GSH in a 1:10 ratio (pseudo-first-order conditions) allowed extraction of accurate and reproducible second order rate constants (k).
Figure 3 In vitro determination of electrophilic reactivity of compounds. (A) NMR assay setup for warhead/GSH reaction rate constant determination and chemoselectivity monitoring, over a 6 h time scale. Purple bead = GSH. Hydrolytic stability was determined in the same way over 36 h. d^4-Trimethylsilylpropanoate (TMSP, blue box) was used as an internal standard for monitoring the warhead solubility. Second-order reaction rate constants (k) were obtained from their pseudo-first-order counterparts (k′), by time-dependent normalized integration of the disappearing warhead signals. […] (B) Experimental second-order rate constants (y axis, log10 scale) for the reaction of representative 2-SP derivatives (left, 11 out of ca. 40 examples) and previously reported heteroarylsulfones (right) with GSH in a KPi buffer, pH 7.0, 20 °C. All rate constants were calculated as an average of at least two independent measurements. Numerical values and standard deviations at both pH 7.0 and 6.5, along with a full list of 2-SPs and other electrophile types tested, are presented in Tables S2–S6 and Figure S4. The horizontal dashed line marks the reaction rate of 2-methylsulfonylpyrimidine at pH 7.0, as a reference when comparing with other reagents (see main text).
To establish an accurate structure–reactivity profile of 2-SP reagents, we systematically determined their reaction rate constants for the arylation of GSH by NMR, at pH 7.0 and 6.5. This was a prerequisite to (i) quantify the influence of substitution on reaction rates; (ii) accurately assess the tunability and chemoselectivity of 2-SPs for cysteine arylation; (iii) determine the influence of pH on the reaction rates to further inform on the precise reaction mechanism; and (iv) benchmark the overall performance of 2-SPs with those of previously reported fast reacting heteroarylsulfones and other common cysteine reactive warheads (Figure 2C,D).

[1] = pH 6.5, by NMR, KPi buffer, 5% DMSO-d6
[2] = pH 7.0, by NMR, KPi buffer, 5% DMSO-d6

Compound: COc1cnc(Cl)nc1 [1n]
- rate constant (k) for the reaction with GSH [1]: NR
- rate constant (k) for the reaction with GSH [2]: NR

Compound: COc1cnc(SC)nc1 [2n]
- rate constant (k) for the reaction with GSH [1]: NR
- rate constant (k) for the reaction with GSH [2]: NR

Compound: Brc1ncccn1 [compound 14, reference compound]
- k: NR

Compound: Clc1cnc(Cl)nc1 [1s]
- rate constant (k) for the reaction with GSH [1]: Ca. 0.07 mM-1.s-1
- rate constant (k) for the reaction with GSH [2]: Ca. 0.26 mM-1.s-1

Compound: CSc1ncccn1 [2q]
- k: NR
- rate constant (k) for the reaction with GSH [1]: NR
- rate constant (k) for the reaction with GSH [2]: NR

Compound: COc1cc(OC)nc(Cl)n1 [1f]
- rate constant (k) for the reaction with GSH [1]: NR
- rate constant (k) for the reaction with GSH [2]: NR

Compound: O=S(=O)(F)c1ccccc1 [compound 26, reference compound]
- reactivity with GSH (in words) (KPi buffer): none
- rate constant (k) for the reaction with GSH [2]: NR

Compound: CC(C)(C)Sc1ncccn1 [3a]
- rate constant (k) for the reaction with GSH [2]: NR

Compound: CSc1nccc(C(F)(F)F)n1 [2l]
- rate constant (k) for the reaction with GSH [1]: NR
- rate constant (k) for the reaction with GSH [2]: NR

Compound: COc1cc(OC)nc(SC)n1 [2f]
- rate constant (k) for the reaction with GSH [1]: NR
- rate constant (k) for the reaction with GSH [2]: NR

Compound: O=[N+]([O-])c1cnc(Cl)nc1 [1w]
- rate constant (k) for the reaction with GSH [1]: NR
- rate constant (k) for the reaction with GSH [2]: NR

Compound: Cc1cc(C)nc(Cl)n1 [1a]
- rate constant (k) for the reaction with GSH [1]: NR
- rate constant (k) for the reaction with GSH [2]: NR

Compound: CS(=O)(=O)c1ncc(F)cn1 [4r]
- rate constant (k) for the reaction with GSH [1]: Multiple
- rate constant (k) for the reaction with GSH [2]: Multiple

Compound: CSc1ncc(C)cn1 [2o]
- rate constant (k) for the reaction with GSH [1]: NR
- rate constant (k) for the reaction with GSH [2]: NR

Compound: COC(=O)c1ccnc(SC)n1 [2k]
- rate constant (k) for the reaction with GSH [1]: NR
- rate constant (k) for the reaction with GSH [2]: NR

Compound: CSc1ncc(Br)cn1 [2t]
- rate constant (k) for the reaction with GSH [1]: NR
- rate constant (k) for the reaction with GSH [2]: NR

Compound: Cc1ccnc(Cl)n1 [1c]
- rate constant (k) for the reaction with GSH [1]: NR
- rate constant (k) for the reaction with GSH [2]: NR

Compound: CC1(C)S[C@@H]2[C@H](N)C(=O)N2[C@H]1C(=O)O [compound 27, reference compound]
- reactivity with GSH (in words) (KPi buffer): none
- rate constant (k) for the reaction with GSH [2]: NR

Compound: O=C(O)c1nc(Cl)ncc1Cl [1h]
- rate constant (k) for the reaction with GSH [1]: NR
- rate constant (k) for the reaction with GSH [2]: NR

Compound: CS(=O)(=O)c1ncc(Cl)c(C(=O)O)n1 [4h]
- k change (vs ref) (pH 7.0): +7 fold

Compound: CSc1nc(C)cc(C)n1 [2a]
- rate constant (k) for the reaction with GSH [1]: NR
- rate constant (k) for the reaction with GSH [2]: NR

Compound: OB1OCc2ccccc21 [compound 23, reference compound]
- rate constant (k) for the reaction with GSH (pH 7): NR

Compound: Oc1ncccn1 [compound 16, reference compound]
- rate constant (k) for the reaction with GSH [2]: NR

Compound: Clc1ncccn1 [1q]
- reactivity with GSH (in words) (KPi buffer): failed to induce observable arylation of GSH
- k: NR
- rate constant (k) for the reaction with GSH [1]: NR
- rate constant (k) for the reaction with GSH [2]: NR

Compound: FC(F)(F)c1ccnc(Cl)n1 [1l]
- rate constant (k) for the reaction with GSH [1]: 0.00045 M⁻¹ s⁻¹
- rate constant (k) for the reaction with GSH [2]: 0.001 ± 0.0005 M⁻¹ s⁻¹

Compound: CSc1nccc(C)n1 [2c]
- rate constant (k) for the reaction with GSH [1]: NR
- rate constant (k) for the reaction with GSH [2]: NR

Compound: CSc1ncc(Cl)c(C(=O)O)n1 [2h]
- rate constant (k) for the reaction with GSH [1]: NR
- rate constant (k) for the reaction with GSH [2]: NR

Compound: CS(=O)(=O)c1nc2ccc([N+](=O)[O-])cc2s1 [compound 10, 2-(methylsulfonyl)-6-nitrobenzo[d]thiazole, reference compound]
- rate constant (k) for the reaction with GSH (pH 6.5, measured by UV titrations): 290 ± 130 M⁻¹ s⁻¹
- second order rate constant k with GSH (pH 7.0, KPi buffer): ≈ 1200 M^–1 s^–1
- k change (vs ref) (pH 7.0): +44,000 fold

Compound: COC(=O)c1cnc(Cl)nc1 [1y]
- rate relative to 5-NO2-MSBT / nitro-MSBT (10) (in words) (in vitro): an order of magnitude
- rate constant (k) for the reaction with GSH [1]: Ca. 11 mM-1.s-1
- rate constant (k) for the reaction with GSH [2]: Ca. 55 mM-1.s-1

Compound: CSc1nccc(C(=O)O)n1 [2d]
- rate constant (k) for the reaction with GSH [1]: NR
- rate constant (k) for the reaction with GSH [2]: NR

Compound: CCCCSc1ncccn1 [3c]
- rate constant (k) for the reaction with GSH [2]: NR

Compound: CSc1ncc(F)cn1 [2r]
- rate constant (k) for the reaction with GSH [1]: NR
- rate constant (k) for the reaction with GSH [2]: NR

Compound: O=C(O)c1nc(Cl)ncc1Br [1i]
- rate constant (k) for the reaction with GSH [1]: NR
- rate constant (k) for the reaction with GSH [2]: NR

Compound: Nc1ccnc(Cl)n1 [1g]
- rate constant (k) for the reaction with GSH [1]: NR
- rate constant (k) for the reaction with GSH [2]: NR

Compound: Cc1cnc(Cl)nc1 [1o]
- rate constant (k) for the reaction with GSH [1]: NR
- rate constant (k) for the reaction with GSH [2]: NR

Compound: Nc1ncccn1 [compound 17, reference compound]
- rate constant (k) for the reaction with GSH [2]: NR

Compound: Fc1ncccn1 [compound 13, reference compound]
- k: NR
- rate constant (k) for the reaction with GSH [2]: NR

Compound: Nc1cnc(Cl)nc1 [1m]
- rate constant (k) for the reaction with GSH [1]: NR
- rate constant (k) for the reaction with GSH [2]: NR

Compound: CSc1ncc([N+](=O)[O-])cn1 [2m]
- rate constant (k) for the reaction with GSH [1]: NR
- rate constant (k) for the reaction with GSH [2]: NR

Compound: O=C(c1ccccc1)C(F)(F)F [compound 25, reference compound]
- reactivity with GSH (in words) (KPi buffer): none
- rate constant (k) for the reaction with GSH [2]: NR

Compound: CSc1nccc(C(N)=O)n1 [2j]
- rate constant (k) for the reaction with GSH [1]: NR
- rate constant (k) for the reaction with GSH [2]: NR

Compound: CSc1nccc(N)n1 [2g]
- rate constant (k) for the reaction with GSH [1]: NR
- rate constant (k) for the reaction with GSH [2]: NR

Compound: Fc1cnc(Cl)nc1 [1r]
- rate constant (k) for the reaction with GSH [1]: NR
- rate constant (k) for the reaction with GSH [2]: NR

Compound: CSc1ncc(Br)c(C(=O)O)n1 [2i]
- rate constant (k) for the reaction with GSH [1]: NR
- rate constant (k) for the reaction with GSH [2]: NR

Compound: Clc1ncc(-c2ccccc2)cn1 [1p]
- rate constant (k) for the reaction with GSH [1]: NR
- rate constant (k) for the reaction with GSH [2]: NR

Compound: C=CC(=O)Nc1ccccc1 [compound 22, reference compound]
- reactivity with GSH (in words) (KPi buffer): none
- rate constant (k) for the reaction with GSH [2]: NR

Compound: O=C(O)c1cnc(Cl)nc1 [1v]
- rate constant (k) for the reaction with GSH [1]: Ca. 0.14 mM-1.s-1
- rate constant (k) for the reaction with GSH [2]: Ca. 0.65 mM-1.s-1

Compound: O=C1C=CC(=O)N1Cc1ccccc1 [compound 21, N-benzylmaleimide, reference compound]
- reactivity with GSH (in words) (KPi buffer): heterogeneous mixture of succinimidyl products
- second order rate constant k with GSH (pH 7.0, KPi buffer): > 0.5 M^–1 s^–1
- rate constant (k) for the reaction with GSH [2]: Multiple products

Compound: CSc1ncc(C(F)(F)F)cn1 [2x]
- rate constant (k) for the reaction with GSH [1]: NR
- rate constant (k) for the reaction with GSH [2]: NR

Compound: Clc1nccc(-c2ccccc2)n1 [1e]
- rate constant (k) for the reaction with GSH [1]: NR
- rate constant (k) for the reaction with GSH [2]: NR

Compound: COC(=O)c1ccnc(Cl)n1 [1k]
- rate constant (k) for the reaction with GSH [1]: NR
- rate constant (k) for the reaction with GSH [2]: NR

Compound: c1ccc(Sc2ncccn2)cc1 [3d]
- rate constant (k) for the reaction with GSH [2]: NR

Compound: O=C(O)c1ccnc(Cl)n1 [1d]
- rate constant (k) for the reaction with GSH [1]: NR
- rate constant (k) for the reaction with GSH [2]: NR

Compound: NC(=O)c1ccnc(Cl)n1 [1j]
- rate constant (k) for the reaction with GSH [1]: NR
- rate constant (k) for the reaction with GSH [2]: NR

Compound: COc1ccnc(Cl)n1 [1b]
- rate constant (k) for the reaction with GSH [1]: NR
- rate constant (k) for the reaction with GSH [2]: NR

Compound: COC(=O)c1cnc(SC)nc1 [2y]
- rate constant (k) for the reaction with GSH [1]: NR
- rate constant (k) for the reaction with GSH [2]: Ca. 0.020 mM-1.s-1

Compound: Clc1ncc(Br)cn1 [1t]
- rate constant (k) for the reaction with GSH [1]: Ca. 0.025 mM-1.s-1
- rate constant (k) for the reaction with GSH [2]: Ca. 0.15 mM-1.s-1

Compound: COc1ccnc(SC)n1 [2b]
- rate constant (k) for the reaction with GSH [1]: NR
- rate constant (k) for the reaction with GSH [2]: NR

Compound: CS(=O)(=O)c1cnccn1 [compound 18]
- reactivity with GSH (in words) (KPi buffer): completely switched off reactivity
- rate constant (k) for the reaction with GSH [1]: NR
- rate constant (k) for the reaction with GSH [2]: NR

Compound: CSc1ncc(Cl)cn1 [2s]
- rate constant (k) for the reaction with GSH [1]: NR
- rate constant (k) for the reaction with GSH [2]: NR

Compound: CSc1nccc(-c2ccccc2)n1 [2e]
- rate constant (k) for the reaction with GSH [1]: NR
- rate constant (k) for the reaction with GSH [2]: NR

Compound: c1ccc(C2CO2)cc1 (stereo not drawn) [compound 24, reference compound]
- reactivity with GSH (in words) (KPi buffer): none
- rate constant (k) for the reaction with GSH [2]: NR
